# From publication PMC3552554 (Thrombosis and haemostasis, 2010)
# Non-standard residues stand in square brackets, D forms with d. Residues, ends and D or L forms follow the SMILES beside them. Oic = O=C(O)[C@@H]1C[C@@H]2CCCC[C@@H]2N1; Phe(4-Me) = Cc1ccc(C[C@H](N)C(=O)O)cc1
# Legend:
# [1] = 3 mg/ml in drinking water; cited from earlier work
# [2] = administered intravenously; cited from earlier work
# [3] = Tail bleeding time; format: in vivo, mouse; conditions: 3 mg/ml in drinking water, 5 days; n = 6; untreated 79±11 sec (n = 5), p = 0.38
# [4] = cited from earlier work
# [5] = system: PC3-luc cells; format: cell-based, human
# [6] = system: PC3 tumor vessels; assay: PECAM; format: in vivo, nude mice; conditions: treated tumors, 3 mg/ml in drinking water; untreated 4.6 ± 2.1/hpf, p = 0.04
# [7] = system: PC3-luc cells; assay: Matrigel invasion assay, α-thrombin-stimulated; format: cell-based, human; conditions: 1 nM α-thrombin overnight, p = 0.02, 3 independent experiments
# [8] = biological target: T1, thrombin (Homo sapiens, UniProt P00734); conditions: cited from earlier work
# [9] = system: carotid artery thrombosis; conditions: cited from earlier work
# [10] = system: PC3-luc tumors; assay: PC3-luc tumor growth in nude mice; format: in vivo; conditions: oral 3 mg/ml in drinking water
# [11] = biological target: T1, thrombin; assay: Plasma thrombin clotting time after oral treatment; format: in vivo, mouse; conditions: 3 mg/ml in drinking water
# [12] = system: human platelets; conditions: cited from earlier work
# [13] = biological target: thrombin; conditions: direct thrombin inhibitor; cited from earlier work
smiles,measurement,setting,value
"Cc1ccc(C[C@H](NC(=O)[C@@H](C)NC(=O)[C@@H]2CCCN2C(=O)[C@@H]2C[C@@H]3CCCC[C@@H]3N2C(=O)[C@H](N)CCCN=C(N)N)C(N)=O)cc1 [FM19, D-Arg-Oic-Pro, D-Ala-Phe(pMe)] (H-[dR][Oic]P[dA][Phe(4-Me)]-NH2)",effect on mouse bleeding time,[1],does not prolong the mouse bleeding time
same,clearance,[2],8.2 ± 5.1 mL/min/kg
same,t1/2α,[2],32.5 ± 2.9 min
same,mean tail bleeding time,[3],92 ± 8 s
same,plasma concentration,[4]; 5 mg/ml steady-state oral,173 ± 16 ng/mL
same,steady-state plasma concentration,"[4]; oral 3 mg/ml in the drinking water, after 5 days",80 ng/mL
"Cc1ccc(C[C@H](NC(=O)[C@@H](C)NC(=O)[C@@H]2CCCN2C(=O)[C@@H]2C[C@@H]3CCCC[C@@H]3N2C(=O)[C@H](N)CCCNC(=N)N)C(N)=O)cc1 [FM19, D-Arg-Oic-Pro, D-Ala-Phe(pMe)] (H-[dR][Oic]P[dA][Phe(4-Me)]-NH2; N-terminus and C-terminus assumed)",IC50,[5],15 µM
same,concentration that inhibited α-thrombin-induced calcium mobilization,"[5]; PC3-luc cells, 1 nM α-thrombin",1 to 100 µM
same,number of large vessels (> 10 microns),[6],1.4 ± 1.4 /hpf
same,lowest concentration that significantly decreased the number of invading cells,[7],0.1 µM
same,prolongation of the plasma thrombin clotting time,"[8]; 3 mg/ml in drinking water, after 5 days",1.4 times
same,prolongation of the thrombin clotting time,[8]; 5 mg/ml steady-state oral,7.3 fold
same,effect on time to carotid artery occlusion,"[9]; 3 mg/ml in drinking water, rose Bengal assay",does not prolong the mouse bleeding time or delay time to carotid artery occlusion
same,effect on induced arterial thrombosis,[9]; 5 mg/ml in drinking water,delays induced arterial thrombosis
same,prolongation of the arterial thrombosis time,[9]; 5 mg/ml steady-state oral,2.7 fold
same,mean tumor weight,"[10]; 5 weeks, 10 tumors, untreated 0.82 ± 0.32 g, p = 0.04",0.5 ± 0.31 g
same,mean tumor growth rate,"[10]; day 14 to day 28, bioluminescence normalized to day 7, untreated 0.55 ± 0.35, p = 0.038",0.26 ± 0.17 fold change/day
same,thrombin clotting time,"[11]; 5 days, n = 6, untreated 16±1 sec, p < 0.003",22 ± 1 s
same,increase in the thrombin clotting time,[11]; treated vs untreated,1.4 fold
same,inhibits the threshold of α-thrombin-induced human platelet aggregation,[12],8.4 ± 4.7 µM
same,Ki,[13],4.4 ± 2.4 µM
